According to PMC6921279 (Frontiers in Endocrinology, 2019):
Ends that are not written are not given here.

Tests used:
[1] = tested on: CRF1R-mediated ERK1/2 phosphorylation; experiment: Modulation of CRF-stimulated ERK1/2 phosphorylation in COS-7 cells expressing HA-CRF1R; assay type: cell-based; conditions: 30 min pretreatment, 100 nM CRF, 5 min
Description: Plasmid pRK5 encoding the carboxyl terminus of βARK that contains its βγ-binding domain (ct-βARK) was kindly provided by Dr. W. Koch (Center for Translational Medicine, Temple University, Philadelphia, PA), which is a scavenger for G protein βγ subunits ([25]). […] Plasmid pUSEamp encoding dominant-negative Akt-K179M (dn-Akt) was from Upstate Biotechnology (Lake Placid, NY).
COS-7 cells (from the American Type Culture Collection) were cultured at 37°C in a humidified atmosphere of 95% air, 5% CO2, in DMEM supplemented with 10% FBS, 100 μg/ml streptomycin, and 100 units/ml penicillin (COS-7 growth medium). Transient transfections were performed using LipofectAMINE (Life Technologies: Gaithersburg, MD) as described previously ([27]). Cells were seeded at 8 × 10^5 cells/10-cm dish in COS-7 medium and cultured for 3 days before transfection. COS-7 cells were transfected in 5 ml/dish OptiMEM containing 10 μg/ml LipofectAMINE with empty vector, pcDNA3 encoding the HA-CRF1R or the HA-CRF1R-Δ386 mutant. […] After replacing the transfection medium with fresh growth medium, transfected COS-7 cells were cultured for 1 day. Subsequently, cells were re-seeded in 6-well plates and cultured for an additional day prior to the experiment.
(§1) The protocols for measuring total and phosphorylated ERK1/2, c-Src, PYK2, Akt, and EGFR have been previously published ([28], [29]). After cells were cultured to 60–70% confluence, they were serum-deprived for 24 h. On the day of the experiment, cells were treated with the indicated ligands and inhibitors. […] After treatment, cells were placed on ice, the media was aspirated, and the cells were washed twice with ice-cold PBS and lysed in 100 μl of Laemmli sample buffer 1X. The lysates were briefly sonicated, heated at 95°C for 5 min, and centrifuged for 5 min at 14,000 rpm. Resulting supernatants were loaded in separate lanes of a 10% SDS-PAGE gels and electrophoresed. Next, Western transfer on to PDVF membranes was completed. The Western blots were then probed with specific antibodies targeting phosphorylated and non-phosphorylated forms of ERK1/2, c-Src, PYK2, Akt, and EGFR for primary immunodetection. After blots were probed with horseradish peroxidase-conjugated secondary antibody, protein bands were visualized with enhanced chemiluminescence ECL reagent (Amersham Pharmacia Biotech, Piscataway, NJ or Pierce Biotechnology, Rockford, IL) and scanned using the GS-800 Calibrated Imaging Densitometer (Bio-Rad). The labeled bands were quantified using the Quantity One 4.6.3 software program (Bio-Rad).
(§2) Total cell lysates were separated by SDS-PAGE and analyzed by immunoblotting with anti-p-ERK1/2 Thr^202/Tyr^204, as described in Materials and Methods. ERK1/2 phosphorylation was quantitated by densitometry, and mean values were plotted from five independent experiments.
Total cell lysates were separated by SDS-PAGE and analyzed by immunoblotting with anti-p-ERK1/2 Thr^202/Tyr^204 (A–D) or anti-p-EGFR Tyr^1068 (E), as described in Materials and Methods. ERK1/2 and EGFR phosphorylation were quantitated by densitometry, and mean values were plotted from three to five independent experiments.
Total cell lysates were separated by SDS-PAGE and analyzed by immunoblotting with anti-p-ERK1/2 Thr^202/Tyr^204, as described in Materials and Methods. ERK1/2 phosphorylation was quantitated by densitometry, and mean values were plotted from three to five independent experiments.

[2] = tested on: PMA-stimulated ERK1/2 phosphorylation; experiment: Modulation of PMA-stimulated ERK1/2 phosphorylation in COS-7 cells; assay type: cell-based; conditions: BIM 1 μM, 30 min pretreatment; 100 nM PMA, 15 min
Description: COS-7 cells (from the American Type Culture Collection) were cultured at 37°C in a humidified atmosphere of 95% air, 5% CO2, in DMEM supplemented with 10% FBS, 100 μg/ml streptomycin, and 100 units/ml penicillin (COS-7 growth medium). Transient transfections were performed using LipofectAMINE (Life Technologies: Gaithersburg, MD) as described previously ([27]). Cells were seeded at 8 × 10^5 cells/10-cm dish in COS-7 medium and cultured for 3 days before transfection. COS-7 cells were transfected in 5 ml/dish OptiMEM containing 10 μg/ml LipofectAMINE with empty vector, pcDNA3 encoding the HA-CRF1R or the HA-CRF1R-Δ386 mutant. […]
The protocols for measuring total and phosphorylated ERK1/2, c-Src, PYK2, Akt, and EGFR have been previously published ([28], [29]). […] The labeled bands were quantified using the Quantity One 4.6.3 software program (Bio-Rad).
as §2, with “Figure 2 CRF-induced ERK1/2 phosphorylation is dependent on Gi protein. […] Total” for “Total”, “experiments. […]” for “experiments.”
Total cell lysates were separated by SDS-PAGE and analyzed by immunoblotting with anti-p-ERK1/2 Thr202/Tyr204, as described in materials and methods. […]

[3] = tested on: basal ERK1/2 or Akt phosphorylation; experiment: Basal ERK1/2 and Akt phosphorylation in COS-7 cells expressing CRF1R; assay type: cell-based; conditions: 1 µM BIM, 30 min
Description: as §1, with “After blots were probed with horseradish peroxidase-conjugated secondary antibody, protein bands were visualized with enhanced chemiluminescence ECL reagent (Amersham Pharmacia Biotech, Piscataway, NJ or Pierce Biotechnology, Rockford, IL) and scanned using the GS-800 Calibrated Imaging Densitometer (Bio-Rad).” left out, “(Bio-Rad). […]” for “(Bio-Rad).”
Total cell lysates were separated by SDS-PAGE and analyzed by immunoblotting with anti-p-Akt Ser473 or anti-p-ERK1/2 Thr202/Tyr204, as described in materials and methods. […]

[4] = tested on: CATH.a, rat fetal microglial, locus coeruleus, and transfected CHO cells; conditions: H89; cited from earlier work
Source text: (§3) Defining the molecular mechanisms for ERK1/2 signaling by a GPCR has become a significant focus of signal transduction research due to the multifaceted pathways mediating signaling via the ERK1/2-MAP kinase cascade. A significant role of the ERK1/2-MAP kinase pathway has been recognized in the biological action of both CRF1R and CRF2R. ERK1/2 is widely distributed in the brain and is considered an essential regulator of the molecular processes involved in response to stress ([6], [64]). It is well-established that most GPCRs signal via ERK1/2-MAP kinase cascades through distinct Gi-, Gs-, and ...

fetal hippocampal cells = conditions: H89 pretreatment; cited from earlier work
Source text: as §3

EGFR = conditions: Ucn1, CRF1R-expressing HEK293; cited from earlier work
[5] = tested on: CRF1R-expressing SK-N-MC neuroblastoma cells; experiment: ERK1/2 phosphorylation in CRF1R-expressing SK-N-MC neuroblastoma cells; assay type: cell-based; conditions: 100 ng/ml FGF, 2 or 5 min
Description: as §1, with “After blots were probed with horseradish peroxidase-conjugated secondary antibody, protein bands were visualized with enhanced chemiluminescence ECL reagent (Amersham Pharmacia Biotech, Piscataway, NJ or Pierce Biotechnology, Rockford, IL) and scanned using the GS-800 Calibrated Imaging Densitometer (Bio-Rad).” left out
Supplementary Figure S2. […] Total cell lysates were separated by SDS-PAGE and analyzed by immunoblotting with anti-p-ERK1/2 Thr202/Tyr204, as described in materials and methods. […]

## CN(C)CCCn1cc(C2=C(c3c[nH]c4ccccc34)C(=O)NC2=O)c2ccccc21 [BIM, bisindolylmaleimide I]
[1]; BIM 1 μM
  CRF-stimulated ERK1/2 activation, fold increase: ~ 1.6 -fold increase over CRF stimulation
[2]
  effect on PMA-induced ERK1/2 phosphorylation: inhibited ERK1/2 phosphorylation resulting from PMA-induced PKC activation
[3]
  effect on basal ERK1/2 activation: small increase in ERK1/2 activation

## O=S(=O)(NCCNC/C=C/c1ccc(Br)cc1)c1cccc2cnccc12 [H89]
[1]; H89 500 nM
  effect on CRF-stimulated ERK1/2 phosphorylation: failed to inhibit CRF-stimulated ERK1/2 phosphorylation
[4]
  effect on CRF1R-mediated ERK signaling: failed to inhibit CRF1R-mediated ERK signaling
Fetal hippocampal cells
  effect on CRF1R-mediated ERK phosphorylation: only produced a small reduction in CRF1R-mediated ERK phosphorylation

## Ucn1: urocortin 1 (DNPSLSIDLTFHLLRTLLELARTQSQRERAEQNRIIFDSV; ends and bridges not checked; UniProt P55089 83-122, looked up)
EGFR
  EGFR transactivation: stimulated EGFR transactivation

## fibroblast growth factor
[5]
  ERK1/2 phosphorylation: induced strong ERK1/2 phosphorylation
